Laboratory results published in patent publication US9040019B2, “Methods of detecting myelin basic protein” (General Electric Company, priority 2012, dated 2015).

Assays:
[1] = Measurement of optical properties of the agents (absorbance and fluorescence emission); assay type: physicochemical; details: in DMSO; for Abs (maximal absorbance wavelength) / Em (maximal fluorescence emission wavelength): compounds lacking nerve binding; for Absorbance Maximum / Emission Maximum / Stoke shift: nerve labeling agents
Protocol: The flurophores were dissolved in dimethylsulfoxide (DMSO) to make a 10 mM stock solution. An aliquot was taken to prepare a 10-100 μM flurophore solution in methanol, water, or DMSO. Optical measurements from the three solvents were taken. Absorbance spectra were measured using a PerkinElmer Lambda™ 20 UV/VIS spectrometer (PerkinElmer, Waltham, Mass.). Emission spectra were generated using a PTI steady state fluorimeter (Photon Technology International, Birmingham, N.H.). The stoke shift for nerve labeling agents on Table 3 are greater than 100 nm.

[2] = test system: nerves; assay: Pre-clinical fluorescence in vivo imaging of nerves in a large rodent model; parameters: species or system Sprague Dawley (SD) rat; details: 0.5 hours post injection
Protocol: (§1) All procedures were approved by the Institutional Animal Care and Use Committee (IACUC) at GE Global Research. Male CD-1 mice ranging in body weight from 25-30 g and SD rats (250-350 g) were purchased from Charles River Laboratories (Wilmington, Mass.) and housed at 22-23° C. on a 12-hour light/dark cycle. On the day of the experiment, rodents were anesthetized using 2-4% isofluorane and given a single tail vein injection of either imaging agent in formulation or formulation excipients alone. […]
(§2) In vivo imaging consisted of detailed fluorescence emission characterization and surgical imaging using a Zeiss Lumar™ imaging system (Carl Zeiss Inc. Thornwood, N.Y.) with coupled multispectral imaging camera (Nuance camera; CRI, Woburn, Mass.) or AxioCam™ (Carl Zeiss Inc. Thornwood, N.Y.). […] A variety of excitation filters were used to characterize the in vivo fluorescence of these agents. […] Fluorescence emission data was then recorded at wavelengths ranging from 420 to 720 nm at 10 nm steps using the attached CRI-Nuance™ camera (Cambridge Research and Instrumentation Inc., Wobur, Mass.) or using a 500 nm-long pass filter on the AxioCam. Fluorescence images were collected using exposure times of 5 seconds in both control and agent injected animals for normalization. […]

[3] = test system: nerve, muscle, and adipose tissue; assay: Kinetics of clearance, tissue fluorescence after IV injection; assay type: in vivo, adult male CD-1 mice; details: 3.33 mg/kg IV; 0.5, 1, 2 and 3 hours post injection
Protocol: as §1, §2

[4] = test system: sciatic nerve tissue sections; assay: Ex vivo binding of nerve labelling agents to sciatic nerve tissue sections (fluorescence microscopy); parameters: species or system male Sprague Dawley (SD) rats; details: 10 μM or 20 μM agent, 1 hour incubation, compared to control tissue without agent
Protocol: For ex vivo histological evaluation, various nerves including sciatic, femoral and trigeminal were harvested from male Sprague Dawley (SD) rats. Tissue was fixed by perfusion and/or post-fixed with formalin. Nerves were then flash-frozen using methanol and dry ice in OCT media. In some cases, polyvinylidene fluoride membranes were used to help keep the nerves vertical in the OCT media. Thin sections (5-10 microns) were sliced on a Leica microtome and stored in a −80° C. freezer prior to staining with antibodies or fluorescent dyes.
Nerve sections were prepared as described above. At the time of staining the slides were removed from −80° C. and allowed to come to room temperature. The nerves were fixed in neutral buffered formalin (10%) for 5 min after which the slides were rinsed in 1×PBS (3×, 5 min/each). 10 μM, or 20 μM each Formula II, Formula III, Formula IV, Formula V, or Formula VI was added onto the tissue in a formulation containing 10% Cremophor EL and 60% rat serum made in 1×PBS. The slides were incubated for 1 hour in a dark, moist/humid chamber at room temperature after which they were washed 3 times for 5 min/each in 1×PBS, cover-slipped, and imaged using the appropriate filter cube on a Zeiss Axioimager at 200× magnification.

Structure (SMILES) | Abs (maximal absorbance wavelength) [1] | Em (maximal fluorescence emission wavelength) [1] | Absorbance Maximum [1] | Emission Maximum [1] | Stoke shift [1] | Ex vivo binding to sciatic nerve tissue sections (fluorescence signal) [4] | further results
CC1(C)OC(=C(C#N)C#N)C(C#N)=C1/C=C/c1ccc(N)cc1 [D] | 574 nm | 621 nm |  |  |  |  | 
CC1=CC(=C(C#N)C#N)C=C(/C=C/c2ccc(N)cc2)O1 [Formula II] |  |  | 478 nm | 607 nm | 129 nm | fluorescence signal is evident | Nerve visibility in fluorescence imaging ([2]; 8.33 mg/kg IV): Visible nerves present; Nerve visibility in fluorescence imaging ([2]; 16.67 mg/kg IV): Visible nerves present; Maximum tissue-specific fluorescence intensity over time post injection (nerve, muscle, adipose tissue) [3]: decreases with increasing time post injection
CC1(C)OC(=O)C(C#N)=C1/C=C/c1ccc(NCCO)cc1 [B] | 494 nm | 578 nm |  |  |  |  | 
CC1=CC(=C(C#N)C#N)C=C(/C=C/c2ccc(N(CCO)CCO)cc2)O1 [III] |  |  |  |  |  | fluorescence signal is evident | 
CC1(C)OC(=O)C(C#N)=C1/C=C/c1ccc(N)cc1 [A] | 480 nm | 562 nm |  |  |  |  | 
CC1=CC(=C(C#N)C#N)C=C(/C=C/c2ccc(NCCO)cc2)O1 [V] |  |  |  |  |  | fluorescence signal is evident | 
COc1cc(/C=C/C2=CC(=C(C#N)C#N)C=C(C)O2)ccc1NCc1ccc(N)cc1 [Formula IV] |  |  | 492 nm | 642 nm | 150 nm |  | 
CC1(C)OC(=C(C#N)C#N)C(C#N)=C1/C=C/c1ccc(N(CCO)CCO)cc1 [F] | 596 nm | 656 nm |  |  |  |  | 
COc1cc(/C=C/C2=CC(=C(C#N)C#N)C=C(C)O2)ccc1N [Formula VI] |  |  | 478 nm | 631 nm | 153 nm |  | 
CC1=CC(=C(C#N)C#N)C=C(/C=C/c2ccc(N(CCO)CCO)cc2)O1 [Formula III] |  |  | 491 nm | 623 nm | 132 nm |  | 
CC1=CC(=C(C#N)C#N)C=C(/C=C/c2ccc(NCCO)cc2)O1 [Formula V] |  |  | 484 nm | 618 nm | 134 nm |  | 
COc1cc(/C=C/C2=CC(=C(C#N)C#N)C=C(C)O2)ccc1N [VI] |  |  |  |  |  | fluorescence signal is evident | 
COc1cc(/C=C/C2=CC(=C(C#N)C#N)C=C(C)O2)ccc1NCc1ccc(N)cc1 [IV] |  |  |  |  |  | fluorescence signal is evident | 
CC1(C)OC(=C(C#N)C#N)C(C#N)=C1/C=C/c1ccc(NCCO)cc1 [E] | 590 nm | 636 nm |  |  |  |  | 
CC1(C)OC(=O)C(C#N)=C1/C=C/c1ccc(N(CCO)CCO)cc1 [C] | 505 nm | 591 nm |  |  |  |  | 
